The record followed here is ChEMBL document CHEMBL5055644, “Cysteine derivatives as acetyl lysine mimics to inhibit zinc-dependent histone deacetylases for treating cancer” (Eur J Med Chem, 2021).

Data set [1] is described as follows: Acute toxicity in BALB/c mouse assessed as maximum tolerated dose. The note with it: in vivo.
Data set [2] addresses T1, Protein deacetylase HDAC6 (Homo sapiens) (UniProt Q9UBN7).
T1 sequence (whole entry): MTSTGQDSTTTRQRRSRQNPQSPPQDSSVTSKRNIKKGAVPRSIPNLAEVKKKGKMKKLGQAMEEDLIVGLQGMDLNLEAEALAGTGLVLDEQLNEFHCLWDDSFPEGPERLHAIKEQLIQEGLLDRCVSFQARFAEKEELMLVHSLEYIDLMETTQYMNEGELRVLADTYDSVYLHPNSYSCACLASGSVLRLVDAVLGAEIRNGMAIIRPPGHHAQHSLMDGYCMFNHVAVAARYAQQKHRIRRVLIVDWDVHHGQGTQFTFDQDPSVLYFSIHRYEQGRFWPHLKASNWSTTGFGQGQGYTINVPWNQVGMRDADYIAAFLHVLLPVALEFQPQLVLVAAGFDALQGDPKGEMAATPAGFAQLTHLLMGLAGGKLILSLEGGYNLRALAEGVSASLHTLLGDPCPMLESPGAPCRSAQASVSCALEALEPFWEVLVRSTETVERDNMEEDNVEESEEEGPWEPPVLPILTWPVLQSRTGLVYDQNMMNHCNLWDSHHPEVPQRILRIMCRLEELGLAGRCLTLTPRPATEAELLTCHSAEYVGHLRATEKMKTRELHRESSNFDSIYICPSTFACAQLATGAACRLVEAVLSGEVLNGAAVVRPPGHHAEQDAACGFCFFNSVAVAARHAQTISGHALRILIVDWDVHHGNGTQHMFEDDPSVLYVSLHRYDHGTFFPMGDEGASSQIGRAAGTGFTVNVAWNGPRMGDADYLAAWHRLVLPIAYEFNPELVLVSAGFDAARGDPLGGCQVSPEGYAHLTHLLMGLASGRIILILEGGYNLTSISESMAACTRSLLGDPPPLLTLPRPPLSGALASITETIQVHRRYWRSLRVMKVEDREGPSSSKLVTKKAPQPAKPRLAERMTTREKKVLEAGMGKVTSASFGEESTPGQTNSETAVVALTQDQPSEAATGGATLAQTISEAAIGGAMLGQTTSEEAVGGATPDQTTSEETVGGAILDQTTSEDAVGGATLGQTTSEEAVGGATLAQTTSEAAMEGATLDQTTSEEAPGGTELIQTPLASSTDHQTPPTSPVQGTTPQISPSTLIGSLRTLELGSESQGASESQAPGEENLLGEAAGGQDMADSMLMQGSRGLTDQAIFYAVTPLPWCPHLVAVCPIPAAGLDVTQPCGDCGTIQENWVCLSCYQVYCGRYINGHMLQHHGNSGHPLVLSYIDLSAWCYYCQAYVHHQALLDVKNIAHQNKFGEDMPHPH
The data set can be described thus: Inhibition of HDAC6 in human A549 cells assessed as increase in alpha tubulin acetylation at 10 uM measured after 8 hrs by Western blot analysis. Format: cell-based.

Data set [3] concerns A549. The data set can be described thus: Antitumor activity against human A549 cells xenografted in BALB/c mouse assessed as tumor growth inhibition at low dose when administered intratumorally for 21 days relative to control. The class given is functional. To be noted: route it(Intratumoral); time 21 day.
For data set [4], the system named is A549. The data set can be described thus: Induction of cell cycle arrest in human A549 cells assessed as increase in accumulation at G1/G0 phase measured after 48 hrs by flow cytometry analysis. Format: functional, cell-based. To be noted: dose 1-10 µM.
Data set [5] relates to K562. Nature of the data set: Induction of apoptosis in human K562 cells assessed as increased cleaved caspase 9 at 10 uM measured after 8 hrs by Western blot analysis. Format: functional, cell-based.
For data set [6], the system named is A549. Nature of the data set: Antitumor activity against human A549 cells xenografted in BALB/c mouse assessed as reduction in tumor volume when administered intratumorally for 21 days. The class given is functional. To be noted: dose 0.75-1.5 mg, route it(Intratumoral), time 21.0 day.
Data set [7] in a line: Acute toxicity in BALB/c mouse assessed as effect on body weight at up to 2000 mg/kg, po. Format: organism-based. To be noted: in vivo.
Data set [8] has as its system Mus musculus. Nature of the data set: Toxicity in BALB/c mouse xenografted with human A549 cells assessed as effect on body weight at 25 to 50 mg/kg, iv measured after 21 days. The class given is organism-based. To be noted: in vivo, 504 h, dose 25-50 mg/kg, time 21 day.
For data set [9], the system named is K562. Nature of the data set: Induction of apoptosis in human K562 cells assessed as upregulation of BaX protein expression at 10 uM measured after 8 hrs by Western blot analysis. The class given is functional, cell-based.
For data set [10], the system named is K562. Nature of the data set: Induction of apoptosis in human K562 cells assessed as increased cleaved caspase 3 at 10 uM measured after 8 hrs by Western blot analysis. Format: functional, cell-based.
A short description of data set [11]: Acute toxicity in po dosed BALB/c mouse assessed as lethal dose. Format: organism-based. The note with it: in vivo.
The subject of data set [12] is A549. Nature of the data set: Antitumor activity against human A549 cells xenografted in BALB/c mouse assessed as tumor growth inhibition at high dose when administered intratumorally for 21 days relative to control. The class given is functional. The note with it: route it(Intratumoral); time 21 day.
Data set [13] concerns the target T1, Protein deacetylase HDAC6 (Homo sapiens). The data set can be described thus: Inhibition of HDAC6 in human A549 cells assessed as increase in alpha tubulin acetylation measured after 24 hrs by Immunofluorescent assay. The class given is cell-based.
The subject of data set [14] is A549. Nature of the data set: Upregulation of p21 in human A549 cells up to 10 uM measured after 8 hrs by Western blot analysis. The class given is functional, cell-based.
The target of data set [15] is Class 1 histone deacetylase (Homo sapiens) (UniProt Q13547+O15379+Q92769+Q9BY41). Nature of the data set: Inhibition of class 1 HDAC in human A549 cells assessed as increase in histone H3/H4 acetylation measured after 24 hrs by Immunofluorescent assay. Format: cell-based.
Data set [16] concerns the target Protein deacetylase HDAC6 (Mus musculus) (UniProt Q9Z2V5). The data set can be described thus: In vivo inhibition of HDAC6 in BALB/c mouse xenografted with human A549 cells assessed as increase in alpha tubulin acetylation at 25 to 50 mg/kg, iv administered for 3 weeks by immunohistochemical analysis. Format: functional, organism-based. The note with it: dose 25-50 mg/kg.

Data set [17] deals with Mus musculus. Nature of the data set: Toxicity in BALB/c mouse xenografted with human A549 cells assessed as effect on body weight at 0.75 to 1.5 mg, IT(Intratumoral) measured after 21 days. Format: organism-based. The note with it: in vivo, other, 504 h, dose 0.75-1.5 mg, time 21 day.
Data set [18] in a line: Acute toxicity in BALB/c mouse assessed as effect on normal behaviour at up to 2000 mg/kg, po. The class given is organism-based. The note with it: in vivo.
In data set [19] the test system is A549. The data set can be described thus: Induction of apoptosis in human A549 cells at 1 to 10 uM after 48 hrs by Annexin-V/propidium iodide staining based flow cytometric analysis. The note with it: dose 1-10 µM. The class given is functional, cell-based.
The subject of data set [20] is Mus musculus. The data set can be described thus: In vivo inhibition of HDAC in BALB/c mouse xenografted with human A549 cells assessed as increase in H3 histone at 25 to 50 mg/kg, iv administered for 3 weeks by immunohistochemical analysis. The class given is functional, organism-based. The note with it: dose 25-50 mg/kg.
In data set [21] the test system is A549. The data set can be described thus: Antitumour activity against human A549 cells xenografted in BALB/c mouse assessed as tumor growth inhibition at 50 mg/kg,iv administered for 3 weeks relative to control. Format: functional. The note with it: A549, 504 h, read-out: TGI.
The test system of data set [22] is K562. Nature of the data set: Induction of apoptosis in human K562 cells assessed as downregulation of Bcl-2 protein at 10 uM measured after 8 hrs by Western blot analysis. Format: functional, cell-based.
The test system of data set [23] is A549. Nature of the data set: Antitumour activity against human A549 cells xenografted in BALB/c mouse assessed as tumor growth inhibition at 25 mg/kg,iv administered for 3 weeks relative to control. The class given is functional. To be noted: A549, 504 h, read-out: TGI.

SMILES strings stand for the structures. Calls of active or inactive are those of the source. The calls are words filed in the database; no cut-off is given here.

Chain of Class 1 histone deacetylase (Homo sapiens) (O15379 whole entry, looked up): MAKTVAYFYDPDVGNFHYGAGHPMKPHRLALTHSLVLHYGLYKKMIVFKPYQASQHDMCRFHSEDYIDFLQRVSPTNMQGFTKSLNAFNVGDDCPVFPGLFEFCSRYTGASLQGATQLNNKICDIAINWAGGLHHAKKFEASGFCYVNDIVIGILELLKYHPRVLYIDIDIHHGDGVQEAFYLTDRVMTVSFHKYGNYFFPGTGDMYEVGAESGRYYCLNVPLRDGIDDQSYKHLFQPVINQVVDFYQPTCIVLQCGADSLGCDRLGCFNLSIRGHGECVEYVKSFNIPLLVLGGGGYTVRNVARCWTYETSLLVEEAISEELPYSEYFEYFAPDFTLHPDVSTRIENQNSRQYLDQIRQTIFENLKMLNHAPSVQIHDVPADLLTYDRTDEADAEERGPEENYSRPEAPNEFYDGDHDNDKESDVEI
Chain of Class 1 histone deacetylase (Homo sapiens) (Q13547 whole entry, looked up): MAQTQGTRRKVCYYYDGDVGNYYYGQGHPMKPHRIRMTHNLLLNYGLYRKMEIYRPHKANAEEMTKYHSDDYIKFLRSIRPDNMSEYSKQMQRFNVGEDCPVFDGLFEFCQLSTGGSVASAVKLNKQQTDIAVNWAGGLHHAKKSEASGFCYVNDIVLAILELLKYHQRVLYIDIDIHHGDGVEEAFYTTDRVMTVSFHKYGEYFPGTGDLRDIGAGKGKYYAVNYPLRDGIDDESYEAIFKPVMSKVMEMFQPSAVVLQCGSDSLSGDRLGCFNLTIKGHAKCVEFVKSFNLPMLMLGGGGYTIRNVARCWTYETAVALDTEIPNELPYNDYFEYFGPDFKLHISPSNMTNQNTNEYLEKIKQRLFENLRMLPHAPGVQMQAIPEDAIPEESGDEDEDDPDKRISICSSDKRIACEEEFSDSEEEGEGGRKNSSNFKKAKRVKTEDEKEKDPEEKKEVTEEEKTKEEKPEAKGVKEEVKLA
Chain of Class 1 histone deacetylase (Homo sapiens) (Q92769 whole entry, looked up): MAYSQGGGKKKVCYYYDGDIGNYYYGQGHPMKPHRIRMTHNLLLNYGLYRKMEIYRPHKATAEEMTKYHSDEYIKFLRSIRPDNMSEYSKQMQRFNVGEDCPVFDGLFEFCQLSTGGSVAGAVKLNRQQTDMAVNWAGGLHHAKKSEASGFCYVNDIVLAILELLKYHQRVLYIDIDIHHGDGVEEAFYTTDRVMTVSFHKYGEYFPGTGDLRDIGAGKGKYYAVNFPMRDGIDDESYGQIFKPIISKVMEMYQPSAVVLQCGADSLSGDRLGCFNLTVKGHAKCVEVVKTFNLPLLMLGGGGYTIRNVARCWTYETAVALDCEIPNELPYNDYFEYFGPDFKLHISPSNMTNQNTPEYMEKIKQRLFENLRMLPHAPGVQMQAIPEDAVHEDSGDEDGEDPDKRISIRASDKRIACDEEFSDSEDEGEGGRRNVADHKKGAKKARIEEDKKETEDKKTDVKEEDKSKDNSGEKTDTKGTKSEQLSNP
Chain of Class 1 histone deacetylase (Homo sapiens) (Q9BY41 whole entry, looked up): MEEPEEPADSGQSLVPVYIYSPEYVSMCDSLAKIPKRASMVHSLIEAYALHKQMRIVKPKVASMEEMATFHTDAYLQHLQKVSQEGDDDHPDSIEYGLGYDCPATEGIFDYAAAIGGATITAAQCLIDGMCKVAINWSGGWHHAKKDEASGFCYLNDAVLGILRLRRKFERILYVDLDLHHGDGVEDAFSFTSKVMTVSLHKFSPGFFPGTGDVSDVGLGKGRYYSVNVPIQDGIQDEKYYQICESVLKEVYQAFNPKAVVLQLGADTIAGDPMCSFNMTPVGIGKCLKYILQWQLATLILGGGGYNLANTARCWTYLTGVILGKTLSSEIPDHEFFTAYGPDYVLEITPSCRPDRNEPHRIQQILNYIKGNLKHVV
Chain of Protein deacetylase HDAC6 (Mus musculus) (Q9Z2V5 whole entry): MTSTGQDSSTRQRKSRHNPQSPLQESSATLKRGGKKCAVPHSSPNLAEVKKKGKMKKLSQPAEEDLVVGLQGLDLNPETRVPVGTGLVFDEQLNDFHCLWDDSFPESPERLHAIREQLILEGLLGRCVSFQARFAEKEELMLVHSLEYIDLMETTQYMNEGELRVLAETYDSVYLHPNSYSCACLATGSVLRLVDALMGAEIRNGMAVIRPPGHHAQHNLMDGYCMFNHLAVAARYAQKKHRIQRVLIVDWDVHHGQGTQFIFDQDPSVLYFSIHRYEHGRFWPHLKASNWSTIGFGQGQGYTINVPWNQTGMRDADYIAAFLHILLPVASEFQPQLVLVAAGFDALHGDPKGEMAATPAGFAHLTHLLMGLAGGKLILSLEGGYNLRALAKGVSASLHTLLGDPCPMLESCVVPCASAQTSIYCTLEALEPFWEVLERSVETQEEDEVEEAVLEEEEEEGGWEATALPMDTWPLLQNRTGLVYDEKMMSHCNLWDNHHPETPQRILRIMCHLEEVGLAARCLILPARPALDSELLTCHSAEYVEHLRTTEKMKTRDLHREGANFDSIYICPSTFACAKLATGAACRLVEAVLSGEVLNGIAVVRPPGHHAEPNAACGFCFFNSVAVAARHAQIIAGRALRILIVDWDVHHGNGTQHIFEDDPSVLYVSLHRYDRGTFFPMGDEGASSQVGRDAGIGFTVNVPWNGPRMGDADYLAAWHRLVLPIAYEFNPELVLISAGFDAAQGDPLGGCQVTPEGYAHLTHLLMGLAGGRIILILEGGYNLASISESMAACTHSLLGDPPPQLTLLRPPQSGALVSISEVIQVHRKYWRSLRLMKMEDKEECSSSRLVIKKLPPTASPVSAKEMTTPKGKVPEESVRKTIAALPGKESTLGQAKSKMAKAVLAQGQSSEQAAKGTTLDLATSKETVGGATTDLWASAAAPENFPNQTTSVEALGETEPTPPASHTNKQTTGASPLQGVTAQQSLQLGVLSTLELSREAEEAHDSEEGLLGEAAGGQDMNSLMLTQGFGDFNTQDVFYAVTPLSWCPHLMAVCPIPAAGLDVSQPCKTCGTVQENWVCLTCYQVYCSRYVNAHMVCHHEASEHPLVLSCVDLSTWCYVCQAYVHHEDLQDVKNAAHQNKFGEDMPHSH

`O=C(CCCSC[C@H](NC(=O)c1ccccc1)C(=O)Nc1ccccc1)NO`: the maximal tolerated dose (MTD) in [1] worked out at 100 mg/kg. Also, the inhibition entry (in data set [2]; in data set [16]; with Mus musculus [20]) was “Active” throughout. Besides, the figures for the TGI in the data set on A549 [3] and in the data set on A549 [12] were 44% and 72%, respectively. The Activity entry in the data set with A549 [4] was “Dose-dependent effect”; in the data set with A549 [6] it was “Dose-dependent effect”; in data set [7], “Non-Toxic”; with Mus musculus [8] it was “Non-Toxic”; with Mus musculus [17] it was “Non-Toxic”; in data set [18], “Non-Toxic”. In addition, the outcome in the data set with K562 [5], in the data set on K562 [9], with K562 [10], with A549 [14], in the data set on A549 [19] and in the data set with K562 [22] was Active. Moreover, in [11], the LD50 was over 2000 mg/kg. For the same molecule, the inhibition entry in [13] and in [15] was “Dose-dependent effect” in each case. Further, the inhibition in vivo at 50 mg/kg in the data set with A549 [21] was found to be 75%. Moreover, the inhibition in vivo at 25 mg/kg in the data set on A549 [23] was determined as 62%.
